The melting point is the temperature of the solid-liquid transition. Broadly, the IC50 is the concentration that inhibits the measured activity by half. Broadly, the EC50 is the concentration that produces a half-maximal response. Low readings indicate greater potency, high ones weaker potency.

This note sets out measurements from US8163758B2 (Parion Sciences, Inc., priority 2006, dated 2012).

The target of data set [1] is T1, epithelial sodium channel (ENaC) (Canis lupus familiaris, UniProt A0A8I3MKE6+A0A8I3Q679+Q95165).
T1 construct: endogenous in cells; host or cells: primary canine bronchial epithelial cells cultured at air-liquid interface
T1 sequence (A0A8I3Q679 1-649): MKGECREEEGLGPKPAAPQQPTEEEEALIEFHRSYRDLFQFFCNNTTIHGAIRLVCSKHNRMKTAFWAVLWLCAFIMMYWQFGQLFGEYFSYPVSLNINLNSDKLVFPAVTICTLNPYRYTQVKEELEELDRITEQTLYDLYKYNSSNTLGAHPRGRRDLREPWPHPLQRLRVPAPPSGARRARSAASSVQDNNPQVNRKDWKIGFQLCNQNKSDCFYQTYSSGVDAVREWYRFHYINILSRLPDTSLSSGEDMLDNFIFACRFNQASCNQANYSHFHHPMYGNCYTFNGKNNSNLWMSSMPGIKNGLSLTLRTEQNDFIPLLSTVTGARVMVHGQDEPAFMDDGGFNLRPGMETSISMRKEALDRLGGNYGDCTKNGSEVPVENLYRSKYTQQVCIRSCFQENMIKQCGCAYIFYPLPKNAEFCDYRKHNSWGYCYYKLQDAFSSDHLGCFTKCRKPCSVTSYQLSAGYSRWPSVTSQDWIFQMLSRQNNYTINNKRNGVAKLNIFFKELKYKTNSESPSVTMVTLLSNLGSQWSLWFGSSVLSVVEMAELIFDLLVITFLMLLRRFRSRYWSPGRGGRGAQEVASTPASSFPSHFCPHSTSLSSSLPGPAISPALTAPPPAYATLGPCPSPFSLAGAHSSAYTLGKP
T1 sequence (Q95165 1-641): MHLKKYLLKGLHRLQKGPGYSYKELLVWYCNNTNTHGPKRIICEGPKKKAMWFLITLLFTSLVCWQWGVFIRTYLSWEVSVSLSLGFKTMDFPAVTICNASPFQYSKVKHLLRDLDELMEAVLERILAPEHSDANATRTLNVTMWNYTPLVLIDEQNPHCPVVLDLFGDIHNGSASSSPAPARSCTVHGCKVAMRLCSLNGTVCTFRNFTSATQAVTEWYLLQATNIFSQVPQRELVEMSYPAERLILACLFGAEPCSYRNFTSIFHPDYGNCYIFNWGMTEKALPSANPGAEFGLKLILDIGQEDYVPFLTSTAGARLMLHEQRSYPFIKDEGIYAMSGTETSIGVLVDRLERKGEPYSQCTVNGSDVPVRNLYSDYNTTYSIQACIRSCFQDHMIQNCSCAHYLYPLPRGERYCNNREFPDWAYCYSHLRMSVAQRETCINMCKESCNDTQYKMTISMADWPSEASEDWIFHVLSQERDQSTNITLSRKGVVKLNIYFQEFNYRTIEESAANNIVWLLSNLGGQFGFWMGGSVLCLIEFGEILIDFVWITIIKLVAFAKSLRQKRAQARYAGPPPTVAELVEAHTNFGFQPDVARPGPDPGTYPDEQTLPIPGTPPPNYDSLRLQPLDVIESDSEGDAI
T1 sequence (A0A8I3MKE6 1-646): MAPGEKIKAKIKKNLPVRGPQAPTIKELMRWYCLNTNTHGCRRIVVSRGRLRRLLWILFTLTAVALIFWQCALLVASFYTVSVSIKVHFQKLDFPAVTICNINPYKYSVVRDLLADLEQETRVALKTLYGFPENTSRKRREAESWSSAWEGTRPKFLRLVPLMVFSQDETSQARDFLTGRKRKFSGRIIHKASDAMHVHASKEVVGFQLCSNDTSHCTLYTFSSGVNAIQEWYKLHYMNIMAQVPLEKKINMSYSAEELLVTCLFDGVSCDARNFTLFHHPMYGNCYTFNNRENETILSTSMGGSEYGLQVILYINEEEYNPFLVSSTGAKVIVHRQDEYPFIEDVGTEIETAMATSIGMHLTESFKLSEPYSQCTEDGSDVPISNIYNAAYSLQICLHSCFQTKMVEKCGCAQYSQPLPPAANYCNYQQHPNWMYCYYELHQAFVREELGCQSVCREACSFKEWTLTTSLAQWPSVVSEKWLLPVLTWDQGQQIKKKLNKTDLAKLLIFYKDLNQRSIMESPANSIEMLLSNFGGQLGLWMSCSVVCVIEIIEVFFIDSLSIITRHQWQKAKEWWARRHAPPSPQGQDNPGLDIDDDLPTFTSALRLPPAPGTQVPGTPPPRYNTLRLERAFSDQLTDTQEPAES
The data set can be described thus: ENaC blocking activity, short circuit current in airway epithelial monolayers in Ussing chambers. The following applies: canine bronchial epithelia; for ENaC blocking potency relative to Amiloride: fold potency versus amiloride; for IC50: lumenal addition, propranolol 10 μM applied first. In kind it is cell-based. How it is done: To assess epithelial sodium channel blocker potency the compounds of the present invention involves the determination of lumenal drug inhibition of airway epithelial sodium currents measured under short circuit current (ISC) using airway epithelial monolayers mounted in Ussing chambers. Cells obtained from freshly excised human, or dog airways are seeded onto porous 0.4 micrometer Transwell® Permeable Supports (Corning Inc. Acton, Mass.), cultured at air-liquid interface (ALI) conditions in hormonally defined media, and assayed for sodium transport activity (ISC) while bathed in Krebs Bicarbonate Ringer (KBR) in Ussing chambers. All test drug additions are to the lumenal bath with approximately half-log dose additions (from 1×10^−11 M to 6×10^−5 M), and the cumulative change in ISC (decreases) recorded. All drugs are prepared in dimethyl sulfoxide as stock solutions at a concentration of approximately 1×10^−2 and stored at −20° C. Six preparations are typically run in parallel; one preparation per run incorporates 552-02 as a positive control. Before the start of the concentration-effect relationship propranolol, a non-selective […], was applied to the lumenal bath (10 μM) to inhibit the beta agonist component of the designer multiple ligand (DML). All data from the voltage clamps are collected via a computer face and analyzed off-line.
Concentration-effect relationships for all compounds are considered and analyzed Using GraphPad Prism version 3.00 for Windows, GraphPad Software, San Diego Calif. USA. IC50 values, […], are calculated and compared to the 552-02 potency as a positive control.

The next data set has as its target T2, beta-adrenergic receptor (Canis lupus familiaris, UniProt P54833).
T2 construct: endogenous in cells; host or cells: primary canine bronchial epithelial cells cultured at air-liquid interface
The data set can be described thus: Beta agonist activity, anion secretion short circuit current in airway epithelial monolayers in Ussing chambers. In kind it is cell-based, canine. How it is done:
To assess beta agonist activity the compounds of the present invention involves the determination of lumenal drug addition to promote airway epithelial anion currents measured under short circuit current (ISC) using airway epithelial monolayers mounted in Ussing chambers. Cells obtained from freshly excised human, dog, or sheep airways are seeded onto porous 0.4 micron Transwell® Permeable Supports (Corning), cultured at air-liquid interface (ALI) conditions in hormonally defined media, and assayed for anion secretion (ISC) while bathed in Krebs Bicarbonate Ringer (KBR) in Ussing chambers. All test drug additions are to the lumenal bath with approximately half-log dose additions (from 8×10^−10 M to 6.5×10^−5 M), and the cumulative change in ISC (excitation) recorded. All drugs are prepared in dimethyl sulfoxide as stock solutions at a concentration from 1×10^−1 to 1×10^−2 M and stored at −20° C. […] Before the start of the concentration-effect relationship 552-02 a potent sodium channel blocker was applied to the apical surface (1 μM) to eliminate changes in Isc caused by sodium absorption. All data from the voltage clamps are collected via a computer interface and analyzed off-line.
Concentration-effect relationships for all compounds are considered and analyzed Using GraphPad Prism version 3.00 for Windows, GraphPad Software, San Diego Calif. USA.

T2 sequence (P54833 whole entry): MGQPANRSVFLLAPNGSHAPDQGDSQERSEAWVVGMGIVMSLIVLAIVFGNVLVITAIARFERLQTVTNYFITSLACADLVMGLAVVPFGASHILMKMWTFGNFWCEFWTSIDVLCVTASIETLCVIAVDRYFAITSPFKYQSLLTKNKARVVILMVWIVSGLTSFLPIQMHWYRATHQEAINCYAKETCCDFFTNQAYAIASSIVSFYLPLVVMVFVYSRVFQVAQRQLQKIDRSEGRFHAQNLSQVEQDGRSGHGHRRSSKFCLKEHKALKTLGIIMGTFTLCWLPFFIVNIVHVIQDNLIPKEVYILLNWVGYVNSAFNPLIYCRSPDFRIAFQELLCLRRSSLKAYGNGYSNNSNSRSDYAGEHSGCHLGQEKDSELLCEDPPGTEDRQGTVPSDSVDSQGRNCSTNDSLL

In the case of `C[C@H](CCCc1ccc(CCCCNC(=N)NC(=O)c2nc(Cl)c(N)nc2N)cc1)NC[C@H](O)c1ccc(O)c(NC=O)c1` [Compound 30, N-(5-{2-[4-(4-{4-[N′-(3,5-diamino-6-chloropyrazine-2-carbonyl)-guanidino]butyl}phenyl)-1-methylbutylamino]-1-(R)-hydroxyethyl}-2-hydroxyphenyl)formamide], the melting point is 120 to 121 °C (dec.). Moreover, in data set [1], the “ENaC blocking potency relative to Amiloride” value is on record as 93 × Amiloride and the IC50 was found to be 8.4 nM. Moreover, the response at beta-adrenergic receptor was half-maximal at 71.6 nM (EC50).

In turn, `N=C(NCCCCc1ccc(CCCCNC[C@H](O)c2ccc(O)c(NC=O)c2)cc1)NC(=O)c1nc(Cl)c(N)nc1N` [Compound 12, N-(5-{2-[4-(4-{4-[N′-(3,5-diamino-6-chloropyrazine-2-carbonyl)guanidino]butyl}phenyl)butylamino]-1-(R)-hydroxyethyl}-2-hydroxyphenyl)formamide] had a melting point of 138 to 140 °C. In data set [1], the “ENaC blocking potency relative to Amiloride” value is 132 × Amiloride and the IC50 is 5.7 nM. In addition, on beta-adrenergic receptor, the EC50 came out at 151 nM.
